Reference: PubChem BioAssay AID2060497 (Molecular Pharmacology Branch, DTP, NCI, 2025)

System: 317291-083-R-J1-PDC complex spheroids, viability
Test: Anticancer human tumor 317291-083-R-J1-PDC patient-derived soft tissue sarcoma cell line growth inhibition [GQUAD]
Conditions: for IC50: curve of first compound; for viability, T/C: stronger effect = lower value
Text: DNA G-quadruplex Stabilizer Agents in Combinations in Complex Spheroids
A high-throughput screen of multi-cell type tumor spheroids was designed to identify active combinations of DNA G-quadruplex stabilizer agents and targeted small molecules. Complex spheroids include a stromal component modeled by human endothelial cells (HUVEC) and fibroblasts modeled by human mesenchymal stem cells (MSCs). The concentration ranges selected for each drug and investigational agent were based upon clinically achievable concentrations if the clinical Cmax of the agent was known.
Compounds. The drugs and investigational agents: pidnarulex (CX-5461; NSC782164), APTO-253 (NSC789042), BRACO-19 (NSC847499), peposertib (NSC802822), ceralasertib (NSC780249), elimusertib (NSC800525), camonsertib (NSC841442), AZD-1390 (NSC803789), olaparib (NSC753686), talazoparib (NSC767125), ART-558 (NSC835418), sotorasib (NSC818433), MRTX-1133 (NSC836407), SN-38 (NSC673596), topotecan (NSC609699), etoposide (NSC141540), doxorubicin (NSC123127), gemcitabine (NSC613327), 5-fluorouracil (NSC19893), paclitaxel (NSC125973), vemurafenib (NSC761431), panobinostat (NSC761190), R-306465 (JNJ-16241199; NSC773264), adavosertib (NSC754352), TP-3654 (NSC805149), carboplatin (NSC241240), KSQ-4279 (NSC840948), and staurosporine (NSC755774) were obtained from the National Cancer Institute (NCI) Developmental Therapeutics Program Chemical Repository (34). The FDA-approved anticancer drug set is available from the NCI Developmental Therapeutics Program. […] The stock solutions were prepared in dimethyl sulfoxide (DMSO, Sigma-Aldrich, St. Louis, MO, cat. D2650) at 800-fold the tested concentration and stored at -70 degrees C prior to their use. All drugs and investigational agents were tested over a range starting from a high concentration at or near the clinical Cmax and decreasing in half-log increments. If the clinical Cmax for an agent had not been determined, the highest concentration tested was 10 microM.
2.3 Cell Culture. All cells were maintained in an incubator at 37 degrees C and 5% CO2 with 95% humidity. The PDC lines were cultured according to standard operating procedures established by the NCI PDMR. All PDCs were thawed and cultured in Matrigel-coated flasks prepared with a working solution of 1X Ham's F-12 nutrient mix, without supplementation (Invitrogen, cat. 11765054), 100 U/mL penicillin-streptomycin (Invitrogen, cat. 15140122), and 2.5% Matrigel (Corning Inc., cat. 354248) for the first three passages. The 857933-349-R-J2-PDC line was cultured in 6C/Colon 1B media, which includes advanced DMEM/F-12 (Thermo Fisher Scientific, cat. 12634028), 10 mM HEPES (Thermo Fisher Scientific, cat. 15630080), 1X GlutaMAX supplement (Thermo Fisher Scientific, cat. 35050061), 0.1 mg/mL primocin (InvivoGen, cat. ant-pm-2), 10% defined fetal bovine serum, heat inactivated (HyClone Laboratories Inc., cat. SH30070.03HI), 50% L-WRN conditioned media (ATCC, cat. CRL-3276), 1.25 mM N-Acetyl-L-cysteine (Sigma-Aldrich, cat. A9165), 10 mM nicotinamide (Sigma-Aldrich, cat. N0636), 1X B-27 supplement (Thermo Fisher Scientific, cat. 17504044), 1X N-2 supplement (Thermo Fisher Scientific, cat. 17502048), 10 microM Y-27632 dihydrochloride (Tocris Bioscience, cat. 1254), and 50 ng/mL human EGF recombinant protein (Thermo Fisher Scientific, cat. PHG0311). The 485176-168-R4-J1-PDC line was cultured in Panc media, which includes all 6C/Colon 1B media components plus 100 ng/mL human FGF-10 (Thermo Fisher Scientific, cat. 100-26), 500 nM SB-431542 (Selleckchem, cat. S1067), and gastrin (Tocris, cat. 3006).
[…]

[1] = second compound 0.0316 µM, first compound 0.0316 µM
[2] = second compound 0.0316 µM, first compound 0.316 µM
[3] = second compound 0.1 µM, first compound 0.0316 µM
[4] = second compound 0.1 µM, first compound 0.316 µM
[5] = second compound 0.316 µM, first compound 0.0316 µM
[6] = second compound 0.316 µM, first compound 0.316 µM
[7] = second compound 1 µM, first compound 0.0316 µM
[8] = second compound 1 µM, first compound 0.316 µM
[9] = second compound 3.16 µM, first compound 0.0316 µM
[10] = second compound 3.16 µM, first compound 0.316 µM
[11] = second compound 10 µM, first compound 0.0316 µM
[12] = second compound 10 µM, first compound 0.316 µM
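Note: spheroids exposed to compounds for one week before readout.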
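Throughout, for viability, T/C: percent viability relative to DMSO vehicle wells taken as 100%.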

Cc1[nH]c2ccccc2c1CCNCc1ccc(/C=C/C(=O)NO)cc1 + CN(C)c1ccc(Nc2c3ccc(NC(=O)CCN4CCCC4)cc3nc3cc(NC(=O)CCN4CCCC4)ccc23)cc1
IC50 (second compound 0.0316 µM): 40 nM | IC50 (second compound 0.1 µM): 35.1 nM | IC50 (second compound 0.316 µM): 19.7 nM | IC50 (second compound 1 µM): < 0.999 nM | IC50 (second compound 3.16 µM): < 0.999 nM | IC50 (second compound 10 µM): < 0.999 nM | viability, T/C (second compound 0.0316 µM, first compound 0.000999 µM): 104% | viability, T/C (second compound 0.0316 µM, first compound 0.00316 µM): 121% | viability, T/C (second compound 0.0316 µM, first compound 0.00999 µM): 101% | viability, T/C [1]: 61.3% | viability, T/C (second compound 0.0316 µM, first compound 0.0999 µM): 8.25% | viability, T/C [2]: 0.39% | viability, T/C (second compound 0.1 µM, first compound 0.000999 µM): 119% | viability, T/C (second compound 0.1 µM, first compound 0.00316 µM): 102% | viability, T/C (second compound 0.1 µM, first compound 0.00999 µM): 95.4% | viability, T/C [3]: 56.6% | viability, T/C (second compound 0.1 µM, first compound 0.0999 µM): 7.42% | viability, T/C [4]: 0.13% | viability, T/C (second compound 0.316 µM, first compound 0.000999 µM): 79.9% | viability, T/C (second compound 0.316 µM, first compound 0.00316 µM): 75.7% | viability, T/C (second compound 0.316 µM, first compound 0.00999 µM): 74.9% | viability, T/C [5]: 33.1% | viability, T/C (second compound 0.316 µM, first compound 0.0999 µM): 5.76% | viability, T/C [6]: 0.14% | viability, T/C (second compound 1 µM, first compound 0.000999 µM): 48.6% | viability, T/C (second compound 1 µM, first compound 0.00316 µM): 30.2% | viability, T/C (second compound 1 µM, first compound 0.00999 µM): 33.6% | viability, T/C [7]: 15.8% | viability, T/C (second compound 1 µM, first compound 0.0999 µM): 2.82% | viability, T/C [8]: 0.27% | viability, T/C (second compound 3.16 µM, first compound 0.000999 µM): 6.7% | viability, T/C (second compound 3.16 µM, first compound 0.00316 µM): 4.52% | viability, T/C (second compound 3.16 µM, first compound 0.00999 µM): 7.77% | viability, T/C [9]: 1.86% | viability, T/C (second compound 3.16 µM, first compound 0.0999 µM): 0.59% | viability, T/C [10]: 0.18% | viability, T/C (second compound 10 µM, first compound 0.000999 µM): 0.17% | viability, T/C (second compound 10 µM, first compound 0.00316 µM): 0.22% | viability, T/C (second compound 10 µM, first compound 0.00999 µM): 0.54% | viability, T/C [11]: 2% | viability, T/C (second compound 10 µM, first compound 0.0999 µM): 0.38% | viability, T/C [12]: 0.28%

O=c1[nH]cc(F)c(=O)[nH]1 + Cc1[nH]c2ccc(F)cc2c1-c1nc2c3cccnc3c3ncccc3c2[nH]1
IC50 (second compound 0.0316 µM): 5340 nM | IC50 (second compound 0.1 µM): 1680 nM | IC50 (second compound 0.316 µM): 1770 nM | IC50 (second compound 1 µM): 1600 nM | IC50 (second compound 3.16 µM): 2710 nM | IC50 (second compound 10 µM): 823 nM | viability, T/C [1]: 118% | viability, T/C (second compound 0.0316 µM, first compound 0.1 µM): 117% | viability, T/C [2]: 116% | viability, T/C (second compound 0.0316 µM, first compound 1 µM): 69.5% | viability, T/C (second compound 0.0316 µM, first compound 3.16 µM): 73.3% | viability, T/C (second compound 0.0316 µM, first compound 10 µM): 31.8% | viability, T/C [3]: 110% | viability, T/C (second compound 0.1 µM, first compound 0.1 µM): 106% | viability, T/C [4]: 96.7% | viability, T/C (second compound 0.1 µM, first compound 1 µM): 62.2% | viability, T/C (second compound 0.1 µM, first compound 3.16 µM): 34.7% | viability, T/C (second compound 0.1 µM, first compound 10 µM): 30.6% | viability, T/C [5]: 108% | viability, T/C (second compound 0.316 µM, first compound 0.1 µM): 104% | viability, T/C [6]: 89.1% | viability, T/C (second compound 0.316 µM, first compound 1 µM): 63.6% | viability, T/C (second compound 0.316 µM, first compound 3.16 µM): 35.4% | viability, T/C (second compound 0.316 µM, first compound 10 µM): 31.8% | viability, T/C [7]: 93.9% | viability, T/C (second compound 1 µM, first compound 0.1 µM): 102% | viability, T/C [8]: 102% | viability, T/C (second compound 1 µM, first compound 1 µM): 60.9% | viability, T/C (second compound 1 µM, first compound 3.16 µM): 36.5% | viability, T/C (second compound 1 µM, first compound 10 µM): 31.9% | viability, T/C [9]: 99.3% | viability, T/C (second compound 3.16 µM, first compound 0.1 µM): 86.6% | viability, T/C [10]: 79.2% | viability, T/C (second compound 3.16 µM, first compound 1 µM): 45.2% | viability, T/C (second compound 3.16 µM, first compound 3.16 µM): 64.3% | viability, T/C (second compound 3.16 µM, first compound 10 µM): 30.2% | viability, T/C [11]: 73.6% | viability, T/C (second compound 10 µM, first compound 0.1 µM): 75.9% | viability, T/C [12]: 81.5% | viability, T/C (second compound 10 µM, first compound 1 µM): 44.5% | viability, T/C (second compound 10 µM, first compound 3.16 µM): 33% | viability, T/C (second compound 10 µM, first compound 10 µM): 27.4%
